This note sets out measurements from patent publication US11351178B2, “Selective HDAC6 inhibitors” (ITALFARMACO S.P.A., priority 2017, dated 2022).

Read-outs that look alike come from different tables or passages of the source.

One data set has as its target T1, HDAC8 (Homo sapiens, UniProt Q9BY41).
T1 construct: purchased BPS 50008
T1 sequence (Q9BY41 1-377): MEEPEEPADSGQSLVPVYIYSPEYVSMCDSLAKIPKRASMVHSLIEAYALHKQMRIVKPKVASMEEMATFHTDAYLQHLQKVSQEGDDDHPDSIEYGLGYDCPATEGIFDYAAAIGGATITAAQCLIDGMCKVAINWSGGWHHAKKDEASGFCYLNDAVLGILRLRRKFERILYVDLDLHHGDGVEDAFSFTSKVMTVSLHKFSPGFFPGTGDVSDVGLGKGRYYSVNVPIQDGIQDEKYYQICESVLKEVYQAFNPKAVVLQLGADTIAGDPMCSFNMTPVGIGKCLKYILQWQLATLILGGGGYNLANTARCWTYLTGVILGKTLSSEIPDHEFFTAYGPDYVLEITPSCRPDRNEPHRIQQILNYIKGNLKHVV
Kind of data set: Enzymatic test HDAC8. Particulars: Table 3. It is filed as biochemical.

A further data set concerns the target T2, HDAC1 (Homo sapiens, UniProt Q13547).
T2 construct: purchased BPS 50051
Kind of data set: Enzymatic test HDAC1. Type of data set: biochemical. Particulars: Table 3.

A short description of the next data set: Stability in rat plasma. It is filed as in vitro ADME. Particulars: after 4 hours, 37° C. A digest of the protocol: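 Compounds incubated at 37° C in rat or human plasma at 50 μM (UV/HPLC) or 1 or 2 μM (LC-MS/MS) for 0–4 h. Reaction stopped with acidified acetonitrile on ice; percent remaining versus initial amount and plasma half-life calculated.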
Another data set deals with T3, recombinant human HDAC3 (Homo sapiens, UniProt O15379).
T3 construct: purchased BPS 50003
Nature of the data set: Enzymatic screening on recombinant human HDAC3. It is filed as biochemical. The following applies: Table 3. How it is done:
Enzymatic activity on recombinant human HDAC6 and HDAC3 was evaluated (Table 2) for each synthesized compound.
(§1) After a period of incubation at 30° C. (incubation times vary for different isoforms and are shown in table 1) 25 μL of solution containing the substrate were added. As substrate, FLUOR DE LYS® deacetylase substrate (Enzo Life Sciences, cat #BML-K1104, FdL), FLUOR DE LYS®-Green substrate (Enzo Life Sciences, cat #BML-K1572 FdL_G) and trifluoroacetyl-L-lysine (Tfal)-2× concentrated solution in 25 mM Tris-HCl, pH 8, 130 mM NaCl 0.05% Tween-20 10% glycerol) were used. Following a reaction period at 30° C.

Data set [1] in a line: Stability to Phase I metabolism in rat S9 liver fraction. Particulars: after 90 min, 37° C. It is filed as in vitro ADME. In a few lines: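 Phase I stability in human and rat hepatic S9 at 37 °C, sampled up to 90 min. Samples were stopped with acidified acetonitrile on ice, then quantified by HPLC-UV or LC-MS/MS.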
For the next data set, the target named is T4, HDAC5 (Homo sapiens, UniProt Q9UQL6).
T4 construct: purchased BPS 50005
Nature of the data set: Enzymatic test HDAC5. Type of data set: biochemical. The following applies: Table 3. How it is done: as §1

In a further data set the target is T5, recombinant human HDAC6 (Homo sapiens, UniProt Q9UBN7).
T5 sequence (Q9UBN7 1-1215): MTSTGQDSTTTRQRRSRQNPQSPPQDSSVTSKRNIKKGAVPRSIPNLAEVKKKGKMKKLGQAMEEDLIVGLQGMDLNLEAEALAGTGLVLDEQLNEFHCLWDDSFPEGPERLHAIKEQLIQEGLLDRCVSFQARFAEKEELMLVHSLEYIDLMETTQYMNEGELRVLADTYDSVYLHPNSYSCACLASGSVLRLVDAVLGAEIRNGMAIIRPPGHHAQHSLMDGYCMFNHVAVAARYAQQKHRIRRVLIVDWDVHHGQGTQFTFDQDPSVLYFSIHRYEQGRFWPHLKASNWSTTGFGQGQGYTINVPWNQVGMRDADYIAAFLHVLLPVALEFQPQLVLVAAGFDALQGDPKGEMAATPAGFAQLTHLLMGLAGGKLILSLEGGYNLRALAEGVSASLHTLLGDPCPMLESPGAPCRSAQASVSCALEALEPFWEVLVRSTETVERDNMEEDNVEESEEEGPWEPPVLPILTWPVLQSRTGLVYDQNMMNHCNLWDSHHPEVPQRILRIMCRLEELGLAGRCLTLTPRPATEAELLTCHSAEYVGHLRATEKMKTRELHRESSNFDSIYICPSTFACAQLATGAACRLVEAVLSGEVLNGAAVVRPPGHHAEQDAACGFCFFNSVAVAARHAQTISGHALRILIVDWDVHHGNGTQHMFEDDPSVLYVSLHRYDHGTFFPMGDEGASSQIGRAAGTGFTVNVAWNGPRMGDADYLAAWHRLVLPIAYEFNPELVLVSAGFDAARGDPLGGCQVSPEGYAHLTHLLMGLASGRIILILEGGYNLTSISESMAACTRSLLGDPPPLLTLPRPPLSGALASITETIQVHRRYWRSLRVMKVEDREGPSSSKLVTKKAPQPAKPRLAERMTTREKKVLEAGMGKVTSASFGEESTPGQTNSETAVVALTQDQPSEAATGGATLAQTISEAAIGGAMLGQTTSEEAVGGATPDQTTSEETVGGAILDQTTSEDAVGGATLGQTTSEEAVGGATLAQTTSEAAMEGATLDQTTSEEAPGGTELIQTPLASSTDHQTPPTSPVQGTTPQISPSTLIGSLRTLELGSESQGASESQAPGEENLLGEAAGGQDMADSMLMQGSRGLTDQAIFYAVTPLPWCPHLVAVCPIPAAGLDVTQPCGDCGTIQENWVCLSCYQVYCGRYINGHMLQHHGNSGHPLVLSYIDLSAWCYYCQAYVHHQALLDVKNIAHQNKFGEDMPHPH
Kind of data set: Enzymatic screening on recombinant human HDAC6. Type of data set: biochemical. Particulars: read-out: HDAC6 IC50. In a few lines: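 Buffer for substrate addition: 25 mM Tris-HCl pH 8, 130 mM NaCl, 0.05% Tween-20, 10% glycerol, substrate 2× concentrated (FdL, FdL-Green or trifluoroacetyl-lysine). Recombinant human HDAC was preincubated with compound at 30 °C beforehand, timing isoform-dependent, and the reaction was likewise run at 30 °C.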

T4 sequence (Q9UQL6 656-1122 limits assumed): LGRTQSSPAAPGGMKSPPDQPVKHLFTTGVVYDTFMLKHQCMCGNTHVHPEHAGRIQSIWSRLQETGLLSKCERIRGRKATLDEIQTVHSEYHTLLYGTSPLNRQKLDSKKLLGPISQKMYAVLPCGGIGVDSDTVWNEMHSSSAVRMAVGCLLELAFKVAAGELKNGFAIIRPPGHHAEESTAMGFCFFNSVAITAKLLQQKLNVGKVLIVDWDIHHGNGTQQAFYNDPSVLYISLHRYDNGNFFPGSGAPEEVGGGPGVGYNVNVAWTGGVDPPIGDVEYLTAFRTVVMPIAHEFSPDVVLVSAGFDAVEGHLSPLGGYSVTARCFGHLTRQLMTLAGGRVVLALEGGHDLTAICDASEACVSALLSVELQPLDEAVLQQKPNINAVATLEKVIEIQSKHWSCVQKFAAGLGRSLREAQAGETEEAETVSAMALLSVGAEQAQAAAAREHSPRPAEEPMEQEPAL
T2 sequence (Q13547 whole entry): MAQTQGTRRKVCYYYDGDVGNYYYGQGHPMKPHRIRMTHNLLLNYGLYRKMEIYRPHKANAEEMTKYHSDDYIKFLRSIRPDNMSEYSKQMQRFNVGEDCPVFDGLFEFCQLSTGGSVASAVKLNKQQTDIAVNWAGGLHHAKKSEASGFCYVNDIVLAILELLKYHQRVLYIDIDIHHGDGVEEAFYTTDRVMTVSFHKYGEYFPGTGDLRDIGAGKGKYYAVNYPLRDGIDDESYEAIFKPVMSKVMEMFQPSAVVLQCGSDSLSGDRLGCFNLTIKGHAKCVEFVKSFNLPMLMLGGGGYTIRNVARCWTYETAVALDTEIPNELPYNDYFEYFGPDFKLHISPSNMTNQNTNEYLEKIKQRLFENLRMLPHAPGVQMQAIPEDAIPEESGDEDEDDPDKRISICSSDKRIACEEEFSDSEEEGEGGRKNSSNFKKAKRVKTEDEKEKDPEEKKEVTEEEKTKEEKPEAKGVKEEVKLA
T3 sequence (O15379 whole entry): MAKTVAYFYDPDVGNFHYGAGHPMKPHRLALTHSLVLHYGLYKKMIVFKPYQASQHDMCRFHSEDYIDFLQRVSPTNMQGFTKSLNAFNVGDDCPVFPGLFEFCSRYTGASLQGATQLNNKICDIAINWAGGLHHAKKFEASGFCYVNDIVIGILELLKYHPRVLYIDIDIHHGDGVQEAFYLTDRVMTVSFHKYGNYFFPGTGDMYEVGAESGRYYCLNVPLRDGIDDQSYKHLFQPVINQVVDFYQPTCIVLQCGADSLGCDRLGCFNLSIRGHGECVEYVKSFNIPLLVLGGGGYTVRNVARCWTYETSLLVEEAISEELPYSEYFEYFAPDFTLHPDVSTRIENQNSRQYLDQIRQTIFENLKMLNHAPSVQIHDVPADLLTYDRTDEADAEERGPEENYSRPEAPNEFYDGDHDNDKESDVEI
T3 sequence (Q9Y618 395-489 partner limits assumed): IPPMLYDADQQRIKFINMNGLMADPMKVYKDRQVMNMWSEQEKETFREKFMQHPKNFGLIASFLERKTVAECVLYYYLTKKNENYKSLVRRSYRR

By IC50 is commonly meant the concentration needed to halve the response being measured. As to `Cn1c(Sc2ccc(C(=O)NO)cc2)nnc1-c1cccs1` [comp. 10, N-hydroxy-4-((4-methyl-5-(thiophen-2-yl)-4H-1,2,4-triazol-3-yl)thio)benzamide], the IC50 against HDAC8 came out at 506 nM; against HDAC1 it was 1020 nM; on recombinant human HDAC3, 487 nM; at HDAC5 it was 2680 nM; on recombinant human HDAC6 (Table 2), 8 nM; at recombinant human HDAC6 (Table 3), 9 nM. The “residual percentage in rat plasma” value in the data set “Stability in rat plasma” is given as 86%. The “residual percentage in rat S9 fraction” value in data set [1] is 82%.

`O=C(NO)c1cc(F)c(Cn2nnnc2-c2ccccn2)c(F)c1` [comp. 13, 3,5-difluoro-N-hydroxy-4-((5-(pyridin-2-yl)-1H-tetrazol-1-yl)methyl)benzamide]: the IC50 against HDAC8 was determined as 490 nM; on HDAC1, 2890 nM; at recombinant human HDAC3, 2490 nM; at HDAC5, 512 nM; on recombinant human HDAC6 (Table 2), 4 nM; on recombinant human HDAC6 (Table 3) it was 4 nM. The “residual percentage in rat plasma” value in “Stability in rat plasma” stood at 96.7%. In addition, in data set [1], the “residual percentage in rat S9 fraction” value is 90.9%.

In the case of `O=C(NO)c1cc(F)c(Cn2nnnc2-c2cccs2)c(F)c1` [comp. 15, 3,5-difluoro-N-hydroxy-4-((5-(thiophen-2-yl)-1H-tetrazol-1-yl)methyl)benzamide], the IC50 stood at 999 nM at HDAC8; 7090 nM on HDAC1; 6290 nM on recombinant human HDAC3; 706 nM at HDAC5; 19 nM at recombinant human HDAC6 (Table 2); 19 nM on recombinant human HDAC6 (Table 3). In addition, the “residual percentage in rat plasma” value in “Stability in rat plasma” turned out to be 78%. Also, the “residual percentage in rat S9 fraction” value in data set [1] worked out at 60%.

Take `Cn1c(Sc2c(F)cc(C(=O)NO)cc2F)nnc1-c1cccs1` [comp. 17, 3,5-difluoro-N-hydroxy-4-((4-methyl-5-(thiophen-2-yl)-4H-1,2,4-triazol-3-yl)thio)benzamide]: the IC50 against HDAC8 was 193 nM; against HDAC1 it was 3990 nM; on recombinant human HDAC3 it was 2830 nM; on HDAC5, 1540 nM; at recombinant human HDAC6 (Table 2) it was 9 nM; on recombinant human HDAC6 (Table 3) it was 9 nM. In addition, the “residual percentage in rat plasma” value in “Stability in rat plasma” was 87%. In addition, the “residual percentage in rat S9 fraction” value in data set [1] is 71%.

In the case of `O=C(NO)c1cc(F)c(Cn2nnc(-c3ccco3)n2)c(F)c1` [comp. 19, 3,5-difluoro-4-((5-(furan-2-yl)-2H-tetrazol-2-yl)methyl)-N-hydroxybenzamide], the concentration for half-maximal inhibition (IC50) against HDAC8 was 647 nM; at HDAC1, 2520 nM; at recombinant human HDAC3, 2640 nM; against HDAC5 it was 597 nM; on recombinant human HDAC6 (Table 2), 4 nM; on recombinant human HDAC6 (Table 3) it was 4 nM. Besides, the “residual percentage in rat plasma” value in the data set “Stability in rat plasma” stood at 96%. In data set [1], the “residual percentage in rat S9 fraction” value is on record as 68%.

Turning to `O=C(NO)c1ccc(Cn2nnc(-c3ccc(C(F)(F)F)cc3)n2)cc1` [comp. 23, 4-[[5-[4-(trifluoromethyl)phenyl]tetrazol-2-yl]methyl]benzenecarbohydroxamic acid], the half-maximal inhibitory concentration (IC50) against HDAC8 was 2830 nM; against HDAC1, 616 nM; at recombinant human HDAC3 it was 568 nM; on HDAC5 it was 4810 nM; on recombinant human HDAC6 (Table 2), 11 nM; on recombinant human HDAC6 (Table 3) it was 11 nM. Also, the “residual percentage in rat plasma” value in the data set “Stability in rat plasma” turned out to be 77%. Besides, the “residual percentage in rat S9 fraction” value in data set [1] turned out to be 8%.

With `Nn1c(Sc2ccc(C(=O)NO)cc2)nnc1-c1ccc(OC(F)F)cc1` [comp. 28, 4-[[4-amino-5-[4-(difluoromethoxy)phenyl]-1,2,4-triazol-3-yl]sulfanyl]benzenecarbohydroxamic acid], the IC50 on HDAC8 was 270 nM; at HDAC1 it was 426 nM; on recombinant human HDAC3, 373 nM; at HDAC5, 1170 nM; on recombinant human HDAC6 (Table 2), 10 nM; on recombinant human HDAC6 (Table 3), 10 nM. Besides, the “residual percentage in rat plasma” value in “Stability in rat plasma” was 90%. In addition, the “residual percentage in rat S9 fraction” value in data set [1] stood at 68%.

Turning to `O=C(NO)c1ccc(Cn2nnc(-c3ccccc3F)n2)cc1` [comp. 33, 4-[[5-(2-fluorophenyl)tetrazol-2-yl]methyl]benzenecarbohydroxamic acid], the IC50 came out at 413 nM on HDAC8; 232 nM against HDAC1; 138 nM at recombinant human HDAC3; 2360 nM against HDAC5; 3 nM at recombinant human HDAC6 (Table 2); 3 nM at recombinant human HDAC6 (Table 3). Also, the “residual percentage in rat plasma” value in “Stability in rat plasma” is recorded as 52%. Also, the “residual percentage in rat S9 fraction” value in data set [1] was 2%.

As for `O=C(NO)c1ccc(Cc2nnc(-c3ccc(F)cc3F)o2)cc1` [comp. 58, 4-((5-(2,4-difluorophenyl)-1,3,4-oxadiazol-2-yl)methyl)-N-hydroxybenzamide], the IC50 at HDAC8 came to 1000 nM; on HDAC1, 364 nM; on recombinant human HDAC3, 206 nM; against HDAC5 it was 3690 nM; at recombinant human HDAC6 (Table 2), 6 nM; at recombinant human HDAC6 (Table 3), 6 nM. The “residual percentage in rat plasma” value in “Stability in rat plasma” amounted to 106%. Moreover, the “residual percentage in rat S9 fraction” value in data set [1] stood at 15%.

In the case of `CN(C)S(=O)(=O)c1cccc(-c2nnn(Cc3ccc(C(=O)NO)cc3)n2)c1` [comp. 59, 4-[[5-[3-(dimethylsulfamoyl)phenyl]tetrazol-2-yl]methyl]benzenecarbohydroxamic acid], the IC50 on HDAC8 came out at 547 nM; on HDAC1, 353 nM; at recombinant human HDAC3, 448 nM; against HDAC5 it was 4120 nM; on recombinant human HDAC6 (Table 2), 7 nM; at recombinant human HDAC6 (Table 3), 7 nM. Besides, in the data set “Stability in rat plasma”, the “residual percentage in rat plasma” value stood at 53%. Moreover, the “residual percentage in rat S9 fraction” value in data set [1] was 8%.

As to `CCN(CC)S(=O)(=O)c1cccc(-c2nnc(Sc3ccc(C(=O)NO)cc3)n2N)c1` [comp. 61, 4-[[4-amino-5-[3-(diethylsulfamoyl)phenyl]-1,2,4-triazol-3-yl]sulfanyl]benzenecarbohydroxamic acid], the concentration for half-maximal inhibition (IC50) was found to be 494 nM on HDAC8; 495 nM against HDAC1; 488 nM on recombinant human HDAC3; 2510 nM against HDAC5; 9 nM on recombinant human HDAC6 (Table 2); 9 nM at recombinant human HDAC6 (Table 3). The “residual percentage in rat plasma” value in “Stability in rat plasma” is 71%. In addition, in data set [1], the “residual percentage in rat S9 fraction” value came out at 49%.
